Literature values in patent publication US20060154981A1, “Method of reducing intraocular pressure and treating glaucoma” (Alcon, Inc., priority 2005, published 2006).

How the values were obtained:
IOP = conditions: rabbits
neutrophils = conditions: compared with lipoxin A4

Compound	IOP lowering (IOP)	Inhibition of LTB4-induced chemotaxis of neutrophils (neutrophils)
CCCCC[C@H](O)/C=C/C=C\C=C\C=C\[C@@H](O)[C@@H](O)CCCC(=O)OC [methyl ester of lipoxin A4]	reported to lower IOP in rabbits	
CCCCC[C@H](O)[C@H](O)CO [compound 2]		inhibit LTB4-induced chemotaxis of neutrophils as potently as lipoxin A4
